Test results: patent US20100130509A1, “NOVEL ANTIBIOTICS” (Nederlandse Organisatie voor toegepast-natuurwe- …, priority 2007, published 2010)
Converted amounts (≈) assume the structure as drawn. Like-named read-outs stand apart in the source and are kept apart here.

How the values were obtained:
[1] = tested on: S. aureus strain ATCC 6538; test: MIC test (CLSI M7-A6 dilution), S. aureus ATCC 6538; type: cell-based, Staphylococcus aureus; details: for MIC: Staphylococcus aureus
S. aureus TTC 03.0236 = test: MIC test (CLSI M7-A6 dilution), S. aureus TTC 03.0236; type: cell-based; details: Staphylococcus aureus, TTC03.0236; single strain; TTC is internal collection number
Protocol: (§1) MIC test were performed according to standard methodology: M7-A6-“Methods for Dilution Antimicrobial Susceptibility Tests for Bacteria That Grow Aerobically”; Approved Standard, Sixth Edition Clinical and Laboratory Standards Institute 2005 (CLSI/formerly NCCLS).

S. aureus TTC 03.0239 = test: MIC test (CLSI M7-A6 dilution), S. aureus TTC 03.0239; type: cell-based; details: Staphylococcus aureus, TTC03.0239; single strain; TTC is internal collection number
Protocol: as §1

S. epidermis = test: MIC test (CLSI M7-A6 dilution), S. epidermis; type: cell-based; details: single strain
Protocol: as §1

Staphylococcus aureus = test: Antibiotic activity towards Staphylococcus aureus (summary statements); type: cell-based; details: statement in words
[2] = ATCC6538, single strain, Table I, read-out: MIC S. aureus ATTC 6538
[3] = ATCC6538, Table II, Example 3, read-out: MIC S. aureus ATCC 6538

Row | Structure (SMILES) | MIC [1, 3] | MIC S. aureus ATCC 6538 ([1]; Table II, Example 3) | antibiotic activity towards Staphylococcus aureus (Staphylococcus aureus) | efficacy as antimicrobial agents (Staphylococcus aureus) | other results
1 | O=C(Nc1ccccc1)C(Cl)(Cl)c1nnnn1-c1ccccc1 [NewCo0052, N1-phenyl-2,2-dichloro-2-(1-phenyl-1H-1,2,3,4-tetraazol-5-yl)acetamide] |  |  | most notable | exceptionally good | MIC [1, 2]: 1.56 µg/mL (≈ 4.48 µM); MIC (S. aureus TTC 03.0236): 1.56 µg/mL (≈ 4.48 µM); MIC (S. aureus TTC 03.0239): 1.56 µg/mL (≈ 4.48 µM); MIC (S. epidermis): 0.78 µg/mL (≈ 2.24 µM)
2 | COc1ccccc1NC(=O)C(Cl)(Cl)c1nnnn1-c1ccccc1OC [NewCo0053, N1-(2-methoxyphenyl)-2,2-dichloro-2-[1-(2-methoxyphenyl)-1H-1,2,3,4-tetraazol-5-yl]acetamide] |  |  | most notable | exceptionally good | MIC [1, 2]: 0.78 µg/mL (≈ 1.91 µM); MIC (S. aureus TTC 03.0236): 0.78 µg/mL (≈ 1.91 µM); MIC (S. aureus TTC 03.0239): 1.56 µg/mL (≈ 3.82 µM); MIC (S. epidermis): 0.78 µg/mL (≈ 1.91 µM)
3 | Cc1ccccc1-n1nnnc1C(Cl)(Cl)C(=O)Nc1ccccc1 [NewCo 0058, 2,2-dichloro-N-phenyl-2-(1-o-tolyl-1H-tetrazol-5-yl)-acetamide] | 0.39 µg/mL (≈ 1.08 µM) |  | most notable | exceptionally good | 
4 | Cc1ccccc1-n1nnnc1C(Cl)(Cl)C(=O)Nc1ccncc1 [NewCo 0061, 2,2-dichloro-N-pyridin-4-yl-2-(1-o-tolyl-1H-tetrazol-5-yl)-acetamide] | 0.78 µg/mL (≈ 2.15 µM) |  | most notable | exceptionally good | 
5 | CN[C@H](CC(C)C)C(=O)N[C@H]1C(=O)N[C@@H](CC(N)=O)C(=O)N[C@H]2C(=O)N[C@H]3C(=O)N[C@H](C(=O)N[C@H](C(=O)O)c4cc(O)cc(O)c4-c4cc3ccc4O)[C@H](O)c3ccc(c(Cl)c3)Oc3cc2cc(c3O[C@@H]2O[C@H](CO)[C@@H](O)[C@H](O)[C@H]2O[C@H]2C[C@](C)(N)[C@H](O)[C@H](C)O2)Oc2ccc(cc2Cl)[C@H]1O [Vancomycin, reference compound] |  |  |  |  | MIC ([1]; ATCC6538, read-out: MIC S. aureus ATCC 6538): 0.78 µg/mL (≈ 0.538 µM)

More lines, main results first:

Row | MIC [1, 3] | MIC S. aureus ATCC 6538 ([1]; Table II, Example 3) | Structure (SMILES) | antibiotic activity towards Staphylococcus aureus (Staphylococcus aureus) | efficacy as antimicrobial agents (Staphylococcus aureus) | other results
6 | 25 µg/mL (≈ 76.2 µM) |  | Cc1ccccc1-n1nnnc1C(Cl)(Cl)C(=O)NC(C)C [NewCo 0059, 2,2-dichloro-N-isopropyl-2-(1-o-tolyl-1H-tetrazol-5-yl)-acetamide] |  |  | 
7 |  | 12.5 µg/mL (≈ 35.2 µM) | Cc1ccccc1-n1nnnc1C(Cl)(Cl)C(=O)N1CCNCC1 [NewCo 0060, 2,2-dichloro-1-piprazin-1-yl-2-(1-o-tolyl-1H-tetrazol-5-yl)-ethanone] |  |  | 
8 |  | 50 µg/mL (≈ 135 µM) | Cc1ccccc1-n1nnnc1C(Cl)(Cl)C(=O)NC1CCNCC1 [NewCo 0062, 2,2-dichloro-N-piperidin-4-yl-2-(1-O— tolyl-1H-tetrazol-5-yl)-acetamide] |  |  | 
9 | 1.56 µg/mL (≈ 5.45 µM) |  | Cc1ccccc1-n1nnnc1C(Cl)(Cl)C(N)=O [NewCo 0063, 2,2-dichloro-2-(1-o-tolyl-1H-tetrazol-5-yl)-acetamide] | most notable | exceptionally good | 
10 |  | 100 µg/mL (≈ 318 µM) | Cc1ccccc1-n1nnnc1C(Cl)(Cl)C(=O)N(C)C [NewCo 0064, 2-dichloro-N,N-dimethyl-2-(1-o-tolyl-1H-tetrazol-5-yl)-acetamide] |  |  | 
